Patent US20260263410A1, “USE OF CALCIUM SENSING RECEPTOR ANTAGONISTS FOR TREATING OCULAR DISORDERS” (THE REGENTS OF THE UNIVERSITY OF CALIFORNIA, priority 2023, published 2026)
Values joined by “and” are separate entries in the source; they are usually repeats but may differ in a detail not shown here. Equal entries are not always repeated.

Columns and labels:
CFTR = assay: OSPD, forskolin / CFTRinh-172-induced change (CFTR-mediated Cl− secretion); assay type: in vivo, mice
Source text: Using pharmacological activators and inhibitors, OSPD allows studying activities of various ion channels/transporters in the ocular surface.^12 In these studies, baseline OSPD is established using a high Cl^− solution that mimics the tear fihn. OSPD changes induced by amiloride (ENaC inhibitor) indicates Na^+ transport via ENaC. Similarly, OSPD changes induced by forskolin (cAMP agonist) and CFTRinh-172 (CFTR inhibitor) indicates Cl^− secretion via cAMP-activated Cl^− channels and particularly CFTR. Lastly, OSPD changes induced by Ca^2+ agonist ATP indicates Cl^− secretion mediated by CaCCs.
Sequential perfusion of the ocular surface with solutions containing amiloride (ENaC inhibitor), forskolin (cAMP agonist), CFTRinh-172 (CFTR inhibitor), and ATP (Ca^2+ agonist) thus allows determining activities of ENaC, CFTR, and CaCC ion channels, respectively (FIG. 4A).
Using CaSR antagonist NPS-2143 in the OSPD experiments confirmed the hypothesis. Perfusion of ocular surface with 30 μM NPS-2143 led to large hyperpolarization (−13 mV), which was 70% of subsequently applied maximal forskolin-induced hyperpolarization after which cAMP agonist forskolin had minimal further secretory effect (FIGS. 6A and 6B). […]
Ocular surface potential difference (OSPD) and tear fluid volume measurements were performed in mice with topically applied cinacalcet (CaSR activator) and NPS-2143 (CaSR inhibitor). […] As described previously,^12, 14, 15 open-circuit transepithelial potential differences were measured in response to serial perfusions of different isoosmolar (310 mOsm/kg H2O) solutions over the ocular surface at 5-10 ml/min. […] Each solution was perfused onto the ocular surface using a gravity perfusion system (ALA Scientific: Farmingdale, NY, USA) for 1-3 minutes until a stable OSPD reading was obtained.

[1] = Tear fluid volume by endodontic absorbent paper point tear test (EAPPTT); assay type: in vivo, BALB/c mice
Description: Endodontic absorbent paper point tear tests (EAPPTT) […] PBS with 30 μM NPS-2143 (or 0.2% DMSO control) in both eyes. […] The wetted length was measured using a millimeter-scale ruler viewed under a magnifying glass. All mice were kept at ambient conditions (approximately 50% humidity and 21° C.) and provided unrestricted access to food and water.

Row | Structure (SMILES) | reversal of effect by CFTR inhibitor CFTRinh-172 (CFTR; 10 μM CFTRinh-172 after NPS-2143 and forskolin) | Cl− secretory effect in mouse ocular surface (CFTR; applied topically) | increase in tear fluid volume ([1]; single dose topical 0.001% or 30 μM, for at least eight hours) | increase in tear fluid volume ([1]; topical 0.001% or 30 μM, single 10 μL dose, as early as 15 minutes after treatment) | inhibition of CFTR activity (lower CFTRinh-172 response) (CFTR; 30 μM cinacalcet, 10 μM CFTRinh-172, concentration-dependent)
1 | CC(C)(Cc1ccc2ccccc2c1)NC[C@@H](O)COc1cccc(Cl)c1C#N [NPS-2143, 2-chloro-6-[(2R)-3-([1,1-dimethyl-2-(2-naphthalenyl)ethyl]amino)-2-hydroxypropoxy]benzonitrile] | partially reversed | large Cl^− secretory current | > 60% | 60% and ~ 60% | 
2 | C[C@@H](NCCCc1cccc(C(F)(F)F)c1)c1cccc2ccccc12 [cinacalcet] |  |  |  |  | up to 90%
